Experimental data taken from publication PMC12016938, “A small molecule PKCε inhibitor reduces hyperalgesia induced by paclitaxel or opioid withdrawal” (JCI Insight, 2025).
Values joined by “and” are separate entries in the source; they are usually repeats but may differ in a detail not shown here. Equal entries are not always repeated. “Also recorded” adds a separate entry of the source. Where two headings read alike, the source gives them in different places.

What was measured:
[1] = Plasma protein binding, equilibrium dialysis (RED); type: in vitro ADME, human; details: for recovery at 4 h, 10 µM: Rapid Equilibrium Dialysis (RED) device
Experimental: Plasma protein binding. Binding of CP612 to human plasma proteins was measured by equilibrium dialysis using a Rapid Equilibrium Dialysis (RED) Device (Thermo Fisher Scientific). The device uses plates with wells preloaded with equilibrium dialysis membrane inserts, each of which includes 2 side-by-side chambers separated by a dialysis membrane. […] All compounds were tested in triplicate. […] A total of 200 μL of diluted test compound was then added to the plasma chambers of triplicate wells of a 48-sample RED plate (Thermo Fisher Scientific). In total, 400 μL of 0.1M PBS buffer were added to each buffer chamber. The plate was sealed with adhesive foil and incubated at 37°C with shaking for 4 hours, after which 30 μL were removed from each chamber and diluted with either 30 μL of plasma (for buffer chamber samples) or 30 μL of 0.1M PBS (for plasma chamber samples). Samples were extracted with 3 volumes of acetonitrile, centrifuged at 16,000g at 4°C for 10 minutes, and analyzed by LC-MS to calculate the amount of drug in each chamber. The percentage of free compound was calculated as the concentration in the buffer chamber/concentration in the plasma chamber × 100%. The percentage of protein-bound compound was calculated as 100% – the percentage of free compound.

[2] = in vitro; details: human, microsomes; for half-life at 8.5 μM: both
Experimental: Microsomal clearance. To determine if CP612 was a likely substrate for first-pass hepatic metabolism, we measured the stability of CP612 in the presence of human liver microsomes (BioIVT) pooled from over 100 male and female individuals. […] Test compounds were diluted to 10 μM in 0.1M PBS, and then 51 μL were dispensed in quadruplicate into wells of a 96-well plate, which was shaken at 600 rpm at 37°C. Reactions were initiated by adding 1.5 μL of microsomes (20 mg/mL) to the wells and 3 minutes later adding 7.5 μL of 8 mM NADPH (1 mM final concentration). Samples incubated without NADPH were used as negative controls.

[3] = system: hyperalgesia induced by morphine withdrawal; assay: Reversal of hyperalgesia due to morphine withdrawal, von Frey SUDO; type: in vivo, C57BL/6J mice
Source text: We next tested if CP612 reverses hyperalgesia induced by withdrawal from repeated administration of morphine in male and female C57BL/6J mice. Since the pain thresholds of mice receiving repeated administration of saline were not affected by treatment with vehicle or CP612 injection (Figure 6), mice in this experiment were only treated with morphine. […] Both male and female mice that received vehicle continued to show hyperalgesia up to 4 weeks after the last injection of morphine.

[4] = biological target: PKCδ (Homo sapiens, UniProt Q05655); assay: Lance-FRET kinase assay, PKCδ; type: biochemical; set-up: purchased SignalChem Biotech
Sequence of PKCδ (Q05655 whole entry): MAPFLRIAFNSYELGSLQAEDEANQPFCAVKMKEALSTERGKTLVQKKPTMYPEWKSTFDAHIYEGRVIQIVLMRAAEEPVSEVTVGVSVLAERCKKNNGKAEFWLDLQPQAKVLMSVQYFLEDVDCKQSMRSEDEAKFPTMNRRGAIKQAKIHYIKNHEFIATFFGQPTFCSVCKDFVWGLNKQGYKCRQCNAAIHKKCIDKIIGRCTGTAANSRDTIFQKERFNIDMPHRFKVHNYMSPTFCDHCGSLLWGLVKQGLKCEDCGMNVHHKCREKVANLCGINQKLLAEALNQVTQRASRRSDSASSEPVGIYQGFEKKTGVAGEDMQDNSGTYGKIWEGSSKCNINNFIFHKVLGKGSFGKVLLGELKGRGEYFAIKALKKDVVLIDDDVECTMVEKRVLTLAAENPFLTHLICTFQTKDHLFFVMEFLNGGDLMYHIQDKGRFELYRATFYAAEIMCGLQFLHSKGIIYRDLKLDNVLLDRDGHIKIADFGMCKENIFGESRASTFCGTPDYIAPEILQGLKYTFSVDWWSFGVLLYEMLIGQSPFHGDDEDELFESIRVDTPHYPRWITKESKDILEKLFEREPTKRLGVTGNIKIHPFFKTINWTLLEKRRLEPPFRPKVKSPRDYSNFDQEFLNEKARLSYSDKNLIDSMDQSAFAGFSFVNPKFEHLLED
Experimental: Kinase assays. CP612 was assayed against His-AVI–tagged human PKCε (1 nM) produced in Sf9 cells, and ROCK1 (Carna Biosciences; 5 nM) using the Lance-FRET kinase assay system (PerkinElmer Revvity). Other human recombinant PKCs (SignalChem Biotech) were assayed in triplicate at the following concentrations: PKCβII 1.6 nM, PKCγ 500 pM, PKCδ 5 nM, PKCθ 500 pM, and PKCζ 500 pM. PKCs were incubated in a 15 μL reaction volume with kinase buffer (20 mM Tris-HCL [pH 7.4], 10 mM MgCl2, 0.25 mM EGTA, 0.1 mg/mL BSA, and 0.15% Triton X-100), 50 nM ULight-labeled CREBtide […] (PerkinElmer, TRF0107, Revvity), and test compound. […] After incubation at 27°C for another 60 minutes, phosphorylation was detected using a FlexStation 3 Microplate Reader (Molecular Devices) in LANCE TR-FRET mode (excitation = 340 nm, emission = 665 nm) and expressed as relative fluorescence units (RFU). The percentage of inhibition was calculated as: (signal without test compound − signal with test compound)/(signal without test compound − signal without ATP) × 100. […]
Kinase assays used 11-point concentration-response curves and results were analyzed by nonlinear regression using Prism 9 (GraphPad Software) to determine IC50 values. […] Scores for pain threshold, conditioned place preference, and self-administration were analyzed by ANOVA using the following factors. […]

[5] = system: PKCε-dependent mechanical hyperalgesia; assay: Hyperalgesia induced by the PKCε activator ψεRACK, Randall-Selitto paw pressure test; details: for Force applied that led to paw withdrawal: one paw
Experimental: Thirty minutes later, rats were administered vehicle (5 μL, intradermally) or CP612 (1 μg/5 μL, intradermally) (Figure 3). We measured nociceptive thresholds at the same site, at baseline, 30 minutes after the administration of ψεRACK (time 0) and 15, 30, and 60 minutes after the administration of vehicle or CP612.
Mechanical nociceptive thresholds in rats were quantified by the Randall-Selitto paw pressure test using an Ugo Basile Analgesy-Meter. This device applies a linearly increasing mechanical force to the dorsum or plantar region of the rat hind paw. The mechanical nociceptive threshold is defined as the force in grams at which a rat withdraws its paw. […] For studies testing nociceptive thresholds after the PKCε activator ψεRACK, or after the cancer chemotherapeutic drug paclitaxel, rats were placed into cylindrical acrylic restrainers for 40 minutes before starting each session. The restrainers had lateral ports to allow access to the hind paw, as previously described ([35]), and pain thresholds were measured by applying force to the dorsum of the hind paw. Prior to starting experiments, baseline mechanical nociceptive threshold was obtained as the mean of 2–3 readings on 1 hind paw in each rat.

## N[C@H](CNC(=O)C1(c2ccc(Cl)cc2)CCCC1)c1ccc(C(=O)Nc2ccncc2)cc1 [CP612]
[1]; (Corrected concentration in PBS / Corrected concentration in Plasma) * 100, individual replicates
  % Free: 9.57% and 8.99%
[1]; PBS + Plasma relative to starting concentration of 10 uM, individual replicates
  % Recovery: 52.74% and 59.65%
[1]; PBS compartment, relative to starting concentration of 10 uM, individual replicates
  % Absolute (Sample_PBS): 6.46% and 4.60% and 4.92%
[1]; human plasma, individual replicates, read-out: % Bound (converted)
  fraction unbound at 4 h, 10 μM: 0.121
[1]; human, human plasma, 37°C, 4 hours, read-out: Plasma protein binding (% bound) (converted)
  fraction unbound at 4 h, 10 μM: 0.102
[1]; human, human plasma, PBS + Plasma relative to starting concentration of 10 uM, individual replicates, read-out: % Recovery
  recovery at 4 h, 10 µM: 59.9%
[1]; human, human plasma, PBS + Plasma relative to starting concentration of 10 uM, mean of replicates, read-out: % Recovery, Mean
  recovery at 4 h, 10 µM: 57.4%
[1]; human, plasma, (Corrected concentration in PBS / Corrected concentration in Plasma) * 100, individual replicates, read-out: % Free
  fraction unbound at 4 h, 10 μM: 0.121
[1]; human, plasma, mean of replicates, read-out: % Bound, Mean (converted)
  fraction unbound at 4 h, 10 μM: 0.102
[1]; human, plasma, mean of replicates, read-out: % Free, Mean
  fraction unbound at 4 h, 10 μM: 0.102
[1]; individual replicates
  % Bound: 90.43% and 91.01%
[1]; plasma compartment, relative to starting concentration of 10 uM, individual replicates
  % Absolute (Sample_Plasma): 53.46% and 48.13% and 54.72%
[2]; Microsomal clearance t½ (min)
  half-life at 8.5 μM: 10.5 ± 1.31 h
[2]; t1/2 (half life)
  half-life at 8.5 μM: 10.8 h
[2]; t1/2 (half life), Mean
  half-life at 8.5 μM: 10.5 h
[2]
  CLint (clearance), Mean: 2.23
  Microsomal clearance (in words): low
  Microsomal clearance Cl: 2.23 ± 0.29 µL/min
[3]; male and female mice, CP612 20 mg/kg i.p. 2 weeks after last morphine injection
  Effect on established morphine-withdrawal hyperalgesia: reversed
[3]; single dose CP612 20 mg/kg i.p.
  Duration of reversal of hyperalgesia: 2 weeks
[4]; 30 nM CP612, read-out: Inhibition of novel PKCs (PKCδ)
  inhibition at 0.03 µM: > 50%
[4]; Figure 1B PKC isozyme panel
  IC50: 18.8 nM
[5]; 0min (30 min after ψεRACK, before CP612)
  Force applied that led to paw withdrawal: 90 grams and 100 grams and 96.7 grams
[5]; 5min after CP612 1µg/5µL intradermally
  Force applied that led to paw withdrawal: 120 grams and 130 grams and 115 grams and 105 grams
[5]; 10min after CP612 1µg/5µL intradermally
  Force applied that led to paw withdrawal: 100 grams and 110 grams and 130 grams and 115 grams and 120 grams and 135 grams
[5]; 15min after CP612 1µg/5µL intradermally
  Force applied that led to paw withdrawal: 90 grams and 125 grams and 130 grams and 110 grams and 115 grams and 100 grams
[5]; 30min after CP612 1µg/5µL intradermally
  Force applied that led to paw withdrawal: 120 grams and 123.3 grams and 125 grams and 115 grams
[5]; 60min after CP612 1µg/5µL intradermally
  Force applied that led to paw withdrawal: 105 grams and 110 grams and 115 grams and 130 grams and 120 grams
[5]; baseline (before ψεRACK and CP612)
  Force applied that led to paw withdrawal: 130 grams and 120 grams and 125 grams
[5]; male rats, CP612 1 μg/5 μL intradermally 30 min after ψεRACK, up to 60 minutes
  Effect on ψεRACK-induced hyperalgesia: reduced; also recorded: near-complete reversal; also recorded: attenuated
